One may read the IC50 as the midpoint of a concentration-inhibition curve.

Bounds are passed on as bounds.

T1 sequence (P30518 whole entry): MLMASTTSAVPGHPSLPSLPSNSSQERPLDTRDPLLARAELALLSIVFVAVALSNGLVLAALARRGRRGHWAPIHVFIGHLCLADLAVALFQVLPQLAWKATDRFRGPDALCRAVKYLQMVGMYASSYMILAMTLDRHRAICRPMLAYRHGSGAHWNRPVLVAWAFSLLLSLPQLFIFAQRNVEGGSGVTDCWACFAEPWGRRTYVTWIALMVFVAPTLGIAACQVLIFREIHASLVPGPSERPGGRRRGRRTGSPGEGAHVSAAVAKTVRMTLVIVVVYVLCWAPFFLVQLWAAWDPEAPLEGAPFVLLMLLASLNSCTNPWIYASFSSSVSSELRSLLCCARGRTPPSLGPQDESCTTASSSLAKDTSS

This experiment concerns the target T1, human Arginine Vasopressin Receptor V2 (AVPR2) (Homo sapiens, UniProt P30518).
T1 construct: host or cells: 1321N1 (cAMPZen V2 assay ready frozen cells)
Put plainly: Vasopressin V2 receptor antagonist assay (TR-FRET cAMP, 1321N1 cells). Type of experiment: cell-based. A general note: TR-FRET usually uses a lanthanide donor and a delayed reading to cut background.
In the case of `CC1COc2cc(Cl)ccc2N1C(=O)N1CC2(C1)CN(c1ccc(F)cn1)C2` (single isomer, unassigned) [1-73-A], the IC50 is ≥ 1000 nM.
Take `Cc1nccc(N2CC3(CN(C(=O)N4c5ccc(Cl)cc5OCC4C)C3)C2)n1` (stereo not shown) [21-8]: the IC50 fell in the range of 100 to 500 nM.
In the case of `CC1COc2cc(F)ccc2N1C(=O)N1CC2(C1)CN(c1cnccn1)C2` (single isomer, unassigned) [1-65-B] it was ≥ 1000 nM; in that of `Cc1cc(F)nc(N2CC3(CN(C(=O)N4CCOc5cc(Cl)ccc54)C3)C2)c1` [1-45], ≥ 1000 nM; in that of `CC1COc2cc(Cl)ccc2N1C(=O)N1CC2(C1)CN(c1ccccn1)C2` (single isomer, unassigned) [1-60-B], < 100 nM.
`N#Cc1ccnc(N2CC3(CN(C(=O)N4CCOc5cc(Cl)ccc54)C3)C2)c1` [1-53]: the IC50 is ≥ 1000 nM.
The value for `O=C(N1CC2(C1)CN(c1cc(F)cc(F)n1)C2)N1CCOc2cc(Cl)ccc21` [1-51] was ≥ 1000 nM; that for `CC1COc2cc(F)ccc2N1C(=O)N1CC2(C1)CN(c1ncccc1F)C2` (single isomer, unassigned) [1-67-A] was 100 to 500 nM.
Regarding `Cc1cncc(N2CC3(CN(C(=O)N4c5ccc(Cl)cc5OCC4C)C3)C2)n1` (stereo not shown) [21-3], the IC50 is < 100 nM.
In the case of `Cc1nc(N2CC3(CN(C(=O)N4CCOc5cc(Cl)ccc54)C3)C2)ccc1F` [1-30] it was 500 to 1000 nM; in that of `CCC1COc2cc(Cl)ccc2N1C(=O)N1CC2(C1)CN(c1ccc(F)cn1)C2` (single isomer, unassigned) [1-55-B], < 100 nM.
In the case of `CC1COc2cc(Cl)ccc2N1C(=O)N1CC2(C1)CN(c1ccccn1)C2` (stereo not shown) [1-60] it was 100 to 500 nM.
In the case of `CCc1cnc(N2CC3(CN(C(=O)N4c5ccc(Cl)cc5OCC4C)C3)C2)nc1` (stereo not shown) [21-9] it was 100 to 500 nM; in that of `CC1COc2cc(Cl)ccc2N1C(=O)N1CC2(C1)CN(c1ncc(F)cn1)C2` (single isomer, unassigned) [18-2-B], 100 to 500 nM; in that of `Cc1cc(N2CC3(CN(C(=O)N4c5ccc(Cl)cc5OCC4C)C3)C2)ncn1` (stereo not shown) [21-11], 500 to 1000 nM.
As for `O=C(N1CC2(C1)CN(c1ccc(F)cn1)C2)N1CCC(O)c2cc(Cl)ccc21` (single isomer, unassigned) [13-1-B], the concentration for half-maximal inhibition (IC50) is ≥ 1000 nM.
For the molecule `COc1nccnc1N1CC2(CN(C(=O)N3CCOc4cc(Cl)ccc43)C2)C1` [1-43], the half-maximal inhibitory concentration (IC50) is ≥ 1000 nM.
In the case of `CC1COc2cc(F)ccc2N1C(=O)N1CC2(C1)CN(c1ncccc1F)C2` (stereo not shown) [1-67] it was ≥ 1000 nM.
The value for `O=C(N1CC2(C1)CN(c1cc(F)ccn1)C2)N1CCOc2cc(Cl)ccc21` [1-70] was ≥ 1000 nM; that for `CC1COc2cc(Cl)ccc2N1C(=O)N1CC2(C1)CN(c1nccc(C(F)(F)F)n1)C2` (stereo not shown) [21-10] was 100 to 500 nM.
The value for `O=C(N1CC2(C1)CN(c1cnc(F)cn1)C2)N1CCOc2cc(Cl)ccc21` [1-18] was ≥ 1000 nM; that for `Cc1cnc(N2CC3(CN(C(=O)N4c5ccc(Cl)cc5OCC4C)C3)C2)nc1` (single isomer, unassigned) [20-13-B] was < 100 nM; that for `CC1COc2cc(Cl)ccc2N1C(=O)N1CC2(C1)CN(c1cnccn1)C2` (single isomer, unassigned) [1-58-B] was < 100 nM.
On to `CC1COc2cc(Cl)ccc2N1C(=O)N1CC2(C1)CN(c1ncccc1C#N)C2` (stereo not shown) [21-2], for which the IC50 was ≥ 1000 nM.
For the molecule `N#Cc1cccc(N2CC3(CN(C(=O)N4CCOc5cc(Cl)ccc54)C3)C2)n1` [1-39], the concentration for half-maximal inhibition (IC50) was ≥ 1000 nM.
For `Cc1cncc(N2CC3(CN(C(=O)N4CCOc5cc(Cl)ccc54)C3)C2)n1` [1-22], the IC50 was ≥ 1000 nM.
On to `O=C(N1CC2(C1)CN(c1ccc(F)cn1)C2)N1CCOc2cc(F)ccc21` [1-64], for which the IC50 was ≥ 1000 nM.
In turn, `CC1COc2cc(Cl)ccc2N1C(=O)N1CC2(C1)CN(c1ncncc1F)C2` (stereo not shown) [21-5] returned an IC50 of 100 to 500 nM.
The value for `CC1COc2cc(Cl)ccc2N1C(=O)N1CC2(C1)CN(c1ncccc1F)C2` (single isomer, unassigned) [1-57-A] was < 100 nM.
In the case of `Cc1cnc(N2CC3(CN(C(=O)N4CCOc5cc(Cl)ccc54)C3)C2)cn1` [1-20] it was ≥ 1000 nM; in that of `CC1COc2cc(Cl)ccc2N1C(=O)N1CC2(C1)CN(c1cc(=O)n(C)cn1)C2` (single isomer, unassigned) [20-14-B], 500 to 1000 nM; in that of `O=C(N1CC2(C1)CN(c1ccc(F)c(F)n1)C2)N1CCOc2cc(Cl)ccc21` [1-49], ≥ 1000 nM.
In the case of `CC1COc2cc(Cl)ccc2N1C(=O)N1CC2(C1)CN(c1noc3ccccc13)C2` (stereo not shown) [21-1, (6-(benzo[d]isoxazol-3-yl)-2,6-diazaspiro[3.3]heptan-2-yl)(7-chloro-3-methyl-2,3-dihydro-4H-benzo[b][1,4]oxazin-4-yl)methanone] it was ≥ 1000 nM; in that of `CC1COc2cc(Cl)ccc2N1C(=O)N1CC2(C1)CN(c1ccc(F)cn1)C2` (single isomer, unassigned) [1-73-B], < 100 nM.
Molecule `Cc1cccc(N2CC3(CN(C(=O)N4CCOc5cc(Cl)ccc54)C3)C2)n1` [1-3] gave an IC50 of 100 to 500 nM.
In the case of `O=C(N1CC2(C1)CN(c1cccnn1)C2)N1CCOc2cc(Cl)ccc21` [1-71] it was ≥ 1000 nM.
In the case of `CC1COc2cc(Cl)ccc2N1C(=O)N1CC2(C1)CN(c1nn(C)c3ncccc13)C2` (single isomer, unassigned) [20-15-B], the IC50 is < 100 nM.
`Cc1cnnc(N2CC3(CN(C(=O)N4c5ccc(Cl)cc5OCC4C)C3)C2)c1` (stereo not shown) [21-4]: the IC50 lay in the range of 100 to 500 nM.
In the case of `COc1ccc(N2CC3(CN(C(=O)N4CCOc5cc(Cl)ccc54)C3)C2)nc1` [1-68] it was ≥ 1000 nM; in that of `O=C(N1CC2(C1)CN(c1cccc(F)n1)C2)N1CCOc2cc(Cl)ccc21` [1-69], ≥ 1000 nM.
`COc1ccc2c(c1)OCC(C)N2C(=O)N1CC2(C1)CN(c1ccc(F)cn1)C2` (single isomer, unassigned) [1-59-B] registered an IC50 of 100 to 500 nM.
For the molecule `CC1COc2cc(F)ccc2N1C(=O)N1CC2(C1)CN(c1ccccn1)C2` (single isomer, unassigned) [1-66-B], the 50% inhibitory concentration (IC50) was 500 to 1000 nM.
The value for `CC1COc2cc(Cl)ccc2N1C(=O)N1CC2(C1)CN(c1ccncn1)C2` (stereo not shown) [21-6] was ≥ 1000 nM.

The record behind these values is US12152038B2, “Vasopressin receptor antagonists and products and methods related thereto” (Neumora Therapeutics, Inc., priority 2017, dated 2024).
